Measurements from doi:10.1101/2025.07.20.665728 (bioRxiv, 2025).
“And” between values parts separate entries of the source, which are not always exact repeats. Equal entries are not always repeated. Where two headings read alike, the source gives them in different places.

How the values were obtained:
[1] = tested on: SKW-3 cells expressing MBV28 (TRAV1-2/TRBV28) TCR; test: MAIT cell activation assay, SKW-3 MBV28 TCR co-cultured with C1R.MR1; format: cell-based; conditions: for 5-OP-RU-induced activation (CD69): SKW-3 MBV28, in presence of 1 nM 5-OP-RU
Protocol: Next, we explored whether RF catabolites could activate SKW-3 cells expressing two different MAIT TCRs. Distinct responses of T cells expressing TCRs with varying TRBV chain usage reinforces the role of Vβ in modulating MAIT responses to various ligands ([Chancellor et al., 2023]; [Gherardin et al., 2016]; [Seneviratna et al., 2022]).The surface expression of CD69 was measured as a marker for activation of cells expressing the AF-7 (TRAV1-2/TRBV6-1) or MBV28 (TRAV1-2/TRBV28) TCRs after co-culture with C1R.MR1 cells and the ligands.
C1R.MR1 cells (1 x 10^5) were initially stained with CTV for 15 minutes and then incubated with RF catabolites for 20 h. […] Cells were subsequently stained with PE-Cy7-conjugated anti-CD69 (BD; 1:100) and PE-labelled anti-MR1 (26.5 clone; BD; 1:100), before analysis on LSRFortessa (BD Biosciences) flow cytometer. Activation of SKW-3-MAIT cells was reflected by the cell-surface CD69 expression.

[2] = biological target: T1, hMR1 protein (Homo sapiens, UniProt Q95460); test: Fluorescence polarization (FP)-based cell-free MR1 binding assay (competition with JYM20)
T1 construct: plasmids encoding for the extracellular domains of MR1, β2m, and the AF-7 TCRα and TCRβ chains; made in house

[3] = tested on: soluble WT MR1; test: Fluorescence-based thermal shift assay of MR1-ligand complexes; format: binding, human; conditions: MR1 refolded with the ligand, Sypro Orange, three independent experiments
[4] = tested on: C1R.MR1 cells; test: Competition with Ac-6-FP/5-OP-RU-induced MR1 upregulation, C1R.MR1; format: cell-based; conditions: for reduction of Ac-6-FP response: 200 μM (highest concentration), overnight, cell line not given
[5] = biological target: T2, human MR1-β2-microglobulin (β2m) complex (Homo sapiens, UniProt Q95460); test: In vitro refolding of MR1-β2m co-complex with ligand; format: binding; conditions: ligand added to refolding buffer
T2 construct: plasmids encoding for the extracellular domains of MR1, β2m, and the AF-7 TCRα and TCRβ chains; made in house
Description: We then assessed the capacity of RF and its catabolites to be loaded within recombinant MR1. The human MR1-β2-microglobulin (β2m) complex can only co-purify when the MR1 Ag-binding pocket is occupied with ligand ([Kjer-Nielsen et al., 2012]). […] Next, we examined how these catabolites could stabilize MR1 using an in vitro MR1-Ag complexes through thermostability assay ([Eckle et al., 2014]) (Fig. 1H). Here, the half-maximum melting temperatures (Tm50) of the stable complexes MR1-5-OP-RU and MR1-Ac-6-FP were 58.65 ± 0.42 and 62.12 ± 0.37 °C; respectively, consistent with previous values ([Eckle et al., 2014]). […] Thus, the binding of these ligands stabilizes the MR1 protein but to a lower extent in comparison to MR1-5-OP-RU and MR1-Ac-6-FP (Fig. 1H).
Escherichia coli BL21(DE3) cells were transformed with plasmids encoding for the extracellular domains of MR1, β2m, and the AF-7 TCRα and TCRβ chains ([Kjer-Nielsen et al., 2012]; [Patel et al., 2013]; [Wang et al., 2022a]). The proteins were then expressed, and the inclusion bodies were purified, cleaned, and used for refolding. For both MR1 and AF-7 TCR, inclusion bodies were refolded through rapid dilution overnight as previously mentioned ([Keller et al., 2017]). To refold MR1 with ligands, 58 mg MR1 inclusion bodies along with 30 mg of β2m inclusion bodies were placed in a 500 ml of refold buffer consisting of 0.1 M Tris pH 8.0, 5 M of urea, 2 mM EDTA, 2.5 mM oxidized glutathione, 20 mM reduced glutathione and 0.4 M of L-arginine for 16 h at 4° C. Ligands were dissolved in dilute NaOH and added directly into the refolding buffer. […] The refolded MR1-ligand complex was dialyzed against 10 mM Tris pH 8.0 overnight and purified using size-exclusion (Superdex 200, GE Healthcare) and anion-exchange (HiTrapQ, GE Healthcare) chromatography techniques ([Awad et al., 2020a]).

[6] = tested on: C1R.MR1 cells; test: Cell surface MR1 quantification by flow cytometry, C1R.MR1; format: cell-based; conditions: for MR1 cell surface expression: 1–200 μM
Protocol: Next, we investigated whether these RF catabolites can impact MR1 cell surface expression in both MR1-transduced B cell lymphoblastoid (C1R.MR1) and monocytic (THP-1.MR1) cell lines (Fig. 2). Here, the cells were pulsed with 1–200 μM of RF or the RF catabolites, and the cell surface levels of MR1 were quantified by flow cytometry ([Awad et al., 2020a]; [Keller et al., 2017]). Cell viability was unaffected, even at highest concentrations of the catabolites, as depicted in Fig. S2A. […] No impact on the MR1 surface level was observed when the parental C1R cells were incubated with these RF catabolites, probably due to the low basal surface MR1 level whose further reduction becomes undetectable by the anti-MR1 antibody (Fig. S2B). The MR1 downregulation seen in C1R.MR1 cells was specific to MR1 as the level of HLA-A*02:01 was not affected after pulsing C1R-A2 with the ligands (Fig. S2C). […] This MR1 downregulation varied between cell types, with a higher extent observed in THP-1.MR1 than C1R.MR1, and was seen after staining with both two conformational anti-MR1 8F2F9 and 26.5 antibodies (clones 8F2F9 and 26.5; Fig. 2G).
The level of MR1 expressed on the cell surface was measured after the exposure to the investigated ligands as previously described ([Awad et al., 2020a]; [Wang et al., 2022a]). C1R antigen presenting B lymphocytes overexpressing MR1*01 (C1R.MR1), MR1^K43A mutant (C1R.MR1^K43A), MR1^R9H mutant (C1R.MR1^R9H) or HLA-A*02:01 (C1R-A2), in addition to the monocytic THP-1-MR1 cells, were used in this study. 2 x 10^5 cells were incubated with RF catabolites for 3 or 16 h at 37° C and 5% CO2 in 200 μl folate-free RPMI 1640 medium from Gibco (Cat. No. 11875-093) fortified with 10% fetal bovine serum (FBS), sodium pyruvate (1 mmol/L), Hepes buffer (15 mmol/L), pH 7.2 to 7.5, 2% penicillin (100 U/ml), streptomycin ([…]), glutamax (2 mmol/L), nonessential amino acids (0.1 mmol/L) (all from ThermoFisher, Life Technologies), and 2-mercaptoethanol ([…], Sigma) (RF-10). After incubation, the cells were first stained with Zombie Aqua Fixable Viability Kit from BioLegend (Cat. No. 423102) and then incubated with biotinylated 8F2F9 αMR1 antibody for 30 minutes on ice. The unbound antibody was then washed off with 2% fetal bovine serum/PBS. The cells were finally incubated with PE-conjugated streptavidin (BioLegend, 30 μg/ml) and then washed with 2% fetal bovine serum/PBS. The PE fluorescence intensity reflects the surface MR1 level. The data was acquired with an LSRFortessa X-20 (BD Biosciences) and Diva software (BD Biosciences) and analyzed using FlowJo software (BD Biosciences).

[7] = competition with 10 nM JYM20 for 100 nM empty hMR1, 37°C, read-out: IC50

T1 sequence (Q95460 23-302 limits assumed): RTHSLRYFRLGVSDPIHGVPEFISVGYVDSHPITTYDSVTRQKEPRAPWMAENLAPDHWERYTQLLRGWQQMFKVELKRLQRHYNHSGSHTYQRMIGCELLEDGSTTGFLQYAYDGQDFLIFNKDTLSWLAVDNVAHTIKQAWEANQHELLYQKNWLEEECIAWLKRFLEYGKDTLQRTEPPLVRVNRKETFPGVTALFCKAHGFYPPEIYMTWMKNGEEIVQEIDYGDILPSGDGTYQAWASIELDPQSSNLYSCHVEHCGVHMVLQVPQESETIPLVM
T1 sequence (P61769 21-119 partner): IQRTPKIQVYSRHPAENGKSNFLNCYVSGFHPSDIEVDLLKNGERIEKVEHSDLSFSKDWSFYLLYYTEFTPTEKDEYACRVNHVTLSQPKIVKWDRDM
T2 sequence (Q95460 23-302 limits assumed): as the sequence (Q95460 23-302 limits assumed) above
T2 sequence (P61769 21-119 partner): as the sequence (P61769 21-119 partner) above

SMILES | 5-OP-RU-induced activation (CD69) [1] | IC50 [2, 7] | Tm50 (half maximum melting temperature), Mean ± SD ([3]; listed as MR1-alloxazine) | reduction of Ac-6-FP response ([4]; then 10 μM Ac-6-FP 3 h) | folding of the MR1-β2m co-complex in solution [5] | MR1 cell surface expression ([6]; C1R.MR1, 3 h) | CD69 surface expression (activation) ([1]; SKW-3 MBV28, ligand alone) | MR1 expression on C1R.MR1 in co-culture ([1]; SKW-3 MBV28 co-culture with 5-OP-RU) | Tm50 (half maximum melting temperature), Mean ± SD ([3]; listed as MR1-lumichrome) | rank as down-regulator of MR1 cell surface expression ([6]; overall, C1R.MR1 and THP-1.MR1) | IC50 ([2]; IC50, competition with 10 nM JYM20 for 100 nM empty hMR1, 37°C) [µM] | Tm50 (half maximum melting temperature), Mean ± SD ([3]; listed as MR1-lumiflavin) | effect on Ac-6-FP-induced cell surface upregulation of MR1 ([4]; C1R.MR1, 1–200 μM overnight, then 10 μM Ac-6-FP 3 h) | effect on 5-OP-RU-induced cell surface upregulation of MR1 ([4]; C1R.MR1, 1–200 μM overnight, then 5-OP-RU 3 h) | MR1 cell surface expression ([6]; C1R.MR1, 16 h)
O=c1nc2[nH]c3ccccc3nc-2c(=O)[nH]1 [Alloxazine, alloxazine] | could interfere with the 5-OP-RU-induced activation of MBV28 in a dose-dependent manner | 13.4 µM | 49.9–52.0 °C | more than 80% | facilitated the correct folding | reduced MR1 cell surface | – | – | – | – | – | – | – | – | –
Cc1cc2nc3[nH]c(=O)[nH]c(=O)c3nc2cc1C [Lumichrome, 7,8-dimethylalloxazine] | enhanced the 5-OP-RU-induced CD69 expression | 12.5 µM | – | more than 80% | facilitated the correct folding | reduced MR1 cell surface | minor reductions in CD69 | dose-dependent reduction in MR1 expression | 49.9–52.0 °C | most potent down-regulator | – | – | – | – | –
Cc1cc2nc3c(=O)[nH]c(=O)nc-3n(C)c2cc1C [Lumiflavin] | – | – | – | more than 80% | facilitated the correct folding | – | – | – | – | – | 22.8 | 49.9–52.0 °C | – | – | –
Cc1cc2nc3c(=O)[nH]c(=O)nc-3n(C[C@H](O)[C@H](O)[C@H](O)CO)c2cc1C [RF, Riboflavin] | could not compete with 5-OP-RU | ~182 µM and 182 µM | – | – | did not sponsor refolding | did not alter MR1 expression from the baseline | – | – | – | – | – | – | did not modulate | did not modulate | modestly upregulated MR1
